According to patent US6838416B2, “Herbicidal 5-benzyloxymethyl-1,2-isoxazoline derivatives” (Korea Research Institute of Chemical Technology, priority 2000, dated 2005):

Assays:
ORYSA 2-leaf stage = assay: Assay for herbicidal activity on the 2-leaf stage weeds and rice plants: rice 2-leaf stage; assay type: in vivo, Oryza sativa L.; details: applied at 2-leaf stage, 0 untreated control, 100 complete kill
Protocol: (§1) The vessels employed were plastic pots having an area of 140 cm^2 and filled with a sandy loam soil containing 1.2% organic matter (pH 6). Pregerminated seed of rice (ORYSA: Oryza sativa L.) and seed of ECHOR (Echinochloa crus-galli var oryzicola) were seeded on the soil surface, respectively. The pots were then watered at the depth of 3 cm just after seeding.
(§2) Seven days after seeding, the pregerminated seeds of rice were seeded on the soil face whilst the early seeded rice in the same pots and barnyard grass (ECHOR) grew up to the 2-leaf stage. Two days after, a solution of the compound of Example 8 and Tween-20 as a non-ionic emulsifier in 50% acetone, was diluted with water to a concentration of 0.016, 0.063, 0.25, 1 and 4.0 kg/ha, respectively and applied evenly to the test pots.
(§3) Three weeks after starting from the beginning, the application of the herbicide, the herbicidal activity on paddy weeds and the phytotoxicity to the paddy rice plant were visually rated by a percentage grading wherein 0 indicates as an untreated control and 100 indicates complete kill. The results are shown in the following

ECHOR (seed) = assay: Assay for herbicidal activity, paddy pots: ECHOR; assay type: in vivo, Echinochloa crus-galli var. oryzicola; details: three weeks after application, 0 untreated control, 100 complete kill
Text: (§4) To evaluate herbicidal activity against the paddy weeds in the paddy rice (ORYSA: Oryza sativa L.), the herbicidal activity of the compounds of the invention was compared to that of the compound No.109 (compound A) disclosed in U.S. Pat. […] The paddy weeds tested were ECHOR (Echinochloa crus-galli var. oryzicola), SCPJU (Scirpus juncoides ROXB), MOOVA (Monochoria vaginalis […] (Cyperus serotinus ROTTB), and SAGPY (Sagittaria pygmaea MTQ). The vessels employed were plastic pots having an area of 140 cm^2 and filled with a sandy loam soil containing 1.2% organic matter (pH 6).

SAGPY (tuber) = assay: Assay for herbicidal activity, paddy pots: SAGPY; assay type: in vivo, Sagittaria pygmaea MTQ; details: three weeks after application, 0 untreated control, 100 complete kill
Text: as §4

SCPJU (seed) = assay: Assay for herbicidal activity, paddy pots: SCPJU; assay type: in vivo, Scirpus juncoides ROXB; details: three weeks after application, 0 untreated control, 100 complete kill
Text: as §4

MOOVA (seed) = assay: Assay for herbicidal activity, paddy pots: MOOVA; assay type: in vivo, Monochoria vaginalis PRESL; details: three weeks after application, 0 untreated control, 100 complete kill
Text: as §4

CYPSE (tuber) = assay: Assay for herbicidal activity, paddy pots: CYPSE; assay type: in vivo, Cyperus serotinus ROTTB; details: three weeks after application, 0 untreated control, 100 complete kill
Text: as §4

ECHOR 2-leaf stage = assay: Assay for herbicidal activity on the 2-leaf stage weeds and rice plants: ECHOR 2-leaf stage; assay type: in vivo, Echinochloa crus-galli var oryzicola; details: applied at 2-leaf stage, 0 untreated control, 100 complete kill
Protocol: as §1, §2, §3

ORYSA seed = assay: Assay for herbicidal activity on the 2-leaf stage weeds and rice plants: rice seed; assay type: in vivo, Oryza sativa L.; details: applied two days after seeding pregerminated seeds, 0 untreated control, 100 complete kill
Protocol: as §1, §2, §3

ORYSA (3-leaf stage) = assay: Assay for herbicidal activity, paddy pots: phytotoxicity to transplanted rice seedlings; assay type: in vivo, Oryza sativa L.; details: three weeks after application, 0 untreated control, 100 complete kill
Text: as §4

ORYSA (seed) = assay: Assay for herbicidal activity, paddy pots: phytotoxicity to seeded (pregerminated) rice; assay type: in vivo, Oryza sativa L.; details: three weeks after application, 0 untreated control, 100 complete kill
Text: as §4

paddy weeds = assay: Greenhouse herbicidal assays, overall statements on paddy weeds; assay type: in vivo
Text: To evaluate herbicidal activity against the paddy weeds in the paddy rice (ORYSA: Oryza sativa L.), the herbicidal activity of the compounds of the invention was compared to that of the compound No.109 (compound A) disclosed in U.S. Pat. No. 4,983,210 which has a similar structure with that of the present invention. The paddy weeds tested were ECHOR (Echinochloa crus-galli var. oryzicola), SCPJU (Scirpus juncoides ROXB), MOOVA (Monochoria vaginalis PRESL), CYPSE (Cyperus serotinus ROTTB), and SAGPY (Sagittaria pygmaea MTQ).
The vessels employed were plastic pots having an area of 140 cm^2 and filled with a sandy loam soil containing 1.2% organic matter (pH 6). Rice seedlings at the 3-leaf stage (ORYSA: Oryza sativa L.) and pregerminated seeds of rice were transplanted at the depth of 2 cm or seeded on the soil surface, respectively. Then the seeds of ECHOR, SCPJU, and MOOVA were seeded and the tubers of CYPSE and SAGPY also planted on the soil surface in the above plastic pot, wherein the pots were watered at the depth of 3 cm just after planting.
Two days after planting, a solution of the test compound and a non-ionic emulsifier (Tween-20) in 50% acetone, was diluted with water to a concentration of 0.016, 0.063, 0.25, 1.0, and 4.0 kg/ha, respectively and applied evenly to the test pots. […]

Structure (SMILES) | ECHOR (seed) herbicidal activity, visual percentage grading (ECHOR (seed); 0.016 kg/ha) [%] | ECHOR (seed) herbicidal activity, visual percentage grading (ECHOR (seed); 0.063 kg/ha) [%] | ECHOR (seed) herbicidal activity, visual percentage grading (ECHOR (seed); 0.250 kg/ha) [%] | ECHOR (seed) herbicidal activity, visual percentage grading (ECHOR (seed); 1.000 kg/ha) [%] | ECHOR (seed) herbicidal activity, visual percentage grading (ECHOR (seed); 4.000 kg/ha) [%] | SAGPY (tuber) herbicidal activity, visual percentage grading (SAGPY (tuber); 0.016 kg/ha) [%] | SAGPY (tuber) herbicidal activity, visual percentage grading (SAGPY (tuber); 0.063 kg/ha) [%] | SAGPY (tuber) herbicidal activity, visual percentage grading (SAGPY (tuber); 0.250 kg/ha) [%] | SAGPY (tuber) herbicidal activity, visual percentage grading (SAGPY (tuber); 1.000 kg/ha) [%] | SAGPY (tuber) herbicidal activity, visual percentage grading (SAGPY (tuber); 4.000 kg/ha) [%] | SCPJU (seed) herbicidal activity, visual percentage grading (SCPJU (seed); 0.016 kg/ha) [%] | SCPJU (seed) herbicidal activity, visual percentage grading (SCPJU (seed); 0.063 kg/ha) [%] | SCPJU (seed) herbicidal activity, visual percentage grading (SCPJU (seed); 0.250 kg/ha) [%] | SCPJU (seed) herbicidal activity, visual percentage grading (SCPJU (seed); 1.000 kg/ha) [%] | SCPJU (seed) herbicidal activity, visual percentage grading (SCPJU (seed); 4.000 kg/ha) [%] | MOOVA (seed) herbicidal activity, visual percentage grading (MOOVA (seed); 0.016 kg/ha) [%] | MOOVA (seed) herbicidal activity, visual percentage grading (MOOVA (seed); 0.063 kg/ha) [%] | MOOVA (seed) herbicidal activity, visual percentage grading (MOOVA (seed); 0.250 kg/ha) [%] | MOOVA (seed) herbicidal activity, visual percentage grading (MOOVA (seed); 1.000 kg/ha) [%] | MOOVA (seed) herbicidal activity, visual percentage grading (MOOVA (seed); 4.000 kg/ha) [%] | other results
Cc1ccsc1C1=NOC(C)(COCc2c(F)cccc2F)C1 (centres unmarked) [EXAMPLE 8, 5-(2,6-difluorobenzyl)oxymethyl-5-methyl-3-(4-methylthiophene-5-yl)-1,2-isoxazoline] | 50 | 100 | 100 | 100 | 100 | 0 | 0 | 0 | 50 | 80 | 0 | 10 | 10 | 40 | 100 | 50 | 90 | 90 | 100 | 100 | ORYSA 2-leaf stage phytotoxicity, visual percentage grading (ORYSA 2-leaf stage; 0.016 kg/ha): 0%; ORYSA 2-leaf stage phytotoxicity, visual percentage grading (ORYSA 2-leaf stage; 0.063 kg/ha): 0%; ORYSA 2-leaf stage phytotoxicity, visual percentage grading (ORYSA 2-leaf stage; 0.250 kg/ha): 0%; ORYSA 2-leaf stage phytotoxicity, visual percentage grading (ORYSA 2-leaf stage; 1.000 kg/ha): 20%; ORYSA 2-leaf stage phytotoxicity, visual percentage grading (ORYSA 2-leaf stage; 4.000 kg/ha): 65%; CYPSE (tuber) herbicidal activity, visual percentage grading (CYPSE (tuber); 0.016 kg/ha): 0%; CYPSE (tuber) herbicidal activity, visual percentage grading (CYPSE (tuber); 0.063 kg/ha): 50%; CYPSE (tuber) herbicidal activity, visual percentage grading (CYPSE (tuber); 0.250 kg/ha): 90%; CYPSE (tuber) herbicidal activity, visual percentage grading (CYPSE (tuber); 1.000 kg/ha): 100%; CYPSE (tuber) herbicidal activity, visual percentage grading (CYPSE (tuber); 4.000 kg/ha): 100%; ECHOR 2-leaf stage herbicidal activity, visual percentage grading (ECHOR 2-leaf stage; 0.016 kg/ha): 45%; ECHOR 2-leaf stage herbicidal activity, visual percentage grading (ECHOR 2-leaf stage; 0.063 kg/ha): 95%; ECHOR 2-leaf stage herbicidal activity, visual percentage grading (ECHOR 2-leaf stage; 0.250 kg/ha): 100%; ECHOR 2-leaf stage herbicidal activity, visual percentage grading (ECHOR 2-leaf stage; 1.000 kg/ha): 100%; ECHOR 2-leaf stage herbicidal activity, visual percentage grading (ECHOR 2-leaf stage; 4.000 kg/ha): 100%; ORYSA (seed) phytotoxicity, visual percentage grading (ORYSA seed; 0.016 kg/ha): 0%; ORYSA (seed) phytotoxicity, visual percentage grading (ORYSA seed; 0.063 kg/ha): 20%; ORYSA (seed) phytotoxicity, visual percentage grading (ORYSA seed; 0.250 kg/ha): 55%; ORYSA (seed) phytotoxicity, visual percentage grading (ORYSA seed; 1.000 kg/ha): 80%; ORYSA (seed) phytotoxicity, visual percentage grading (ORYSA seed; 4.000 kg/ha): 95%
CC1(COCc2c(F)cccc2F)CC(c2cccs2)=NO1 (centres unmarked) [Compound A, reference compound] | 0 | 0 | 20 | 100 | 100 | 0 | 0 | 100 | 100 | 100 | 0 | 0 | 10 | 70 | 100 | 0 | 0 | 80 | 80 | 100 | ORYSA (3-leaf stage) phytotoxicity, visual percentage grading (ORYSA (3-leaf stage); 0.016 kg/ha): 0%; ORYSA (3-leaf stage) phytotoxicity, visual percentage grading (ORYSA (3-leaf stage); 0.063 kg/ha): 0%; ORYSA (3-leaf stage) phytotoxicity, visual percentage grading (ORYSA (3-leaf stage); 0.250 kg/ha): 0%; ORYSA (3-leaf stage) phytotoxicity, visual percentage grading (ORYSA (3-leaf stage); 1.000 kg/ha): 0%; ORYSA (3-leaf stage) phytotoxicity, visual percentage grading (ORYSA (3-leaf stage); 4.000 kg/ha): 0%; CYPSE (tuber) herbicidal activity, visual percentage grading (CYPSE (tuber); 0.016 kg/ha): 0%; CYPSE (tuber) herbicidal activity, visual percentage grading (CYPSE (tuber); 0.063 kg/ha): 0%; CYPSE (tuber) herbicidal activity, visual percentage grading (CYPSE (tuber); 0.250 kg/ha): 10%; CYPSE (tuber) herbicidal activity, visual percentage grading (CYPSE (tuber); 1.000 kg/ha): 100%; CYPSE (tuber) herbicidal activity, visual percentage grading (CYPSE (tuber); 4.000 kg/ha): 100%; ORYSA (seed) phytotoxicity, visual percentage grading (ORYSA (seed); 0.016 kg/ha): 0%; ORYSA (seed) phytotoxicity, visual percentage grading (ORYSA (seed); 0.063 kg/ha): 0%; ORYSA (seed) phytotoxicity, visual percentage grading (ORYSA (seed); 0.250 kg/ha): 20%; ORYSA (seed) phytotoxicity, visual percentage grading (ORYSA (seed); 1.000 kg/ha): 100%; ORYSA (seed) phytotoxicity, visual percentage grading (ORYSA (seed); 4.000 kg/ha): 100%; herbicidal activity, in words (paddy weeds; at the higher doses): active; herbicidal activity, in words (paddy weeds; at the lower doses): inactive
